Experimental data as given in PMC12844208, “Screening for Peptides to Bind and Functionally Inhibit SARS-CoV-2 Fusion Peptide Using Mirrored Combinatorial Phage Display and Human Proteomic Phage Display” (Molecules, 2026).
“Also recorded” adds a separate entry of the source. Ends that are not written are not given here.

Key:
[1] = system: SARS-CoV-2 infection of Vero-E6/TMPRSS2 cells; experiment: microbe, parasite or virus in culture; assay type: cell-based
[2] = system: D-FP12_biotin (SARS-CoV-2 spike fusion peptide synthesised as a D-peptide); assay type: binding
[3] = system: anti-Borrelia burgdorferi immune sera; conditions: occurrences in the anti-Borrelia burgdorferi immune sera NEB PhD7 screening dataset; cited from earlier work
Source text: Table 2 Ten enriched PhD7-mer L-peptides tested in antiviral assays as D-peptides. | column: Occurrence in an Unrelated Screen

[4] = system: FP; experiment: Preliminary screen of FP versus a pan-coronaviral phage display library; design: species or system SARS-CoV-2; conditions: lack of binding to homologous regions of other coronaviruses placed the finding in doubt
Method: Proteomic phage display of peptide regions of proteins is also possible for viral as well as host proteins, and a preliminary screen of FP versus a pan-coronaviral phage display library of regions of coronaviral proteins was carried out following the methods previously outlined, which only identified a single peptide, despite a large amount of sequencing data obtained. This 39mer […] peptide was derived from the nsp3 (protease-encoding) protein of coronavirus 229E comprising the last four residues of the loop between Y2 and Y3 regions and the first 35 residues of the Y3 region. Y3 plays a role in double-membrane vesicle formation, but the lack of binding to homologous regions of other coronaviruses in the library placed the finding in doubt.

Row | Compound | Read Count [2] | other results
1 | ETSTMYP | 3552 | effect on SARS-CoV-2 infection (number of infected cells compared to vehicle controls) [1]: exception
2 | LTSLPRN | 4284 | –
3 | CCC(CC)COC(=O)[C@H](C)N[P@](=O)(OC[C@H]1O[C@@](C#N)(c2ccc3c(N)ncnn23)[C@H](O)[C@@H]1O)Oc1ccccc1 [Remdesivir, reference compound] | – | inhibition of infection (in words) [1]: strongly inhibited; inhibition at 5 µM ([1]; Severe acute respiratory syndrome coronavirus 2, VeroE6/TMPRSS2, read-out: inhibition of infection): 95%
4 | RRRRRRRRGPDRNFRLSEHRQALA-NH2 [OTUD1-derived peptide] | – | inhibition of SARS-CoV-2 infection of Vero-E6/TMPRSS2 cells (in words) [1]: no evidence for any marked impact; also recorded: failed to inhibit viral infection
5 | NTWPYKP | 264,257 | Occurrence in an Unrelated Screen [3]: 1
6 | LEVYYET | 3570 | –
7 | SLTGTRF | 11,170 | –
8 | HDTTLIT | 169,773 | –
9 | RDHYMMF | 7135 | –
10 | WSRGYTG | 3676 | –
11 | WSLGYTG | 6,280,489 | Occurrence in an Unrelated Screen [3]: 4
12 | HFARHLA | 7063 | –
13 | LSTLSVDFNGVLHKAYIDVLRNSFGKDLNANMSLAECKR | – | peptide identified as binding FP in the pan-coronaviral library [4]: identified
